The test system of one assay is piglets. In words: Growth of piglets given feed with the additive from the 14th day after birth (Example 2). It is filed as in vivo, pig. As to the method:
Using piglets born during a period of from October through November in 2000, feeding was carried out on the 14th day after their birth. […] In this case, the test was carried out using 10 head in each plot, and the average values were calculated.

In the next assay the test system is Large Yorkshire piglets. Kind of assay: Growth and blood examination of piglets after a single administration on the third day after birth (Example 1).
Where [1] appears, read: 21st day after birth, treatment on 3rd day after birth.

Data on one molecule can be found in patent US20040234555A1, “Swine growth promoters and method of promoting swine growth” (priority 2001, published 2004).

Procedure for Large Yorkshire piglets: Thereafter, usual management was carried out, feeding was started on the 14th day after birth, and body weights were measured and blood samples were collected on the 21st day after birth to carry out inspections in accordance with usual way. Also, body weights were measured at the time of shipping after about 6 months, and the number of days reaching a shipping body weight criterion of 110 kg (required days for 110 kg) was calculated. The tests were carried out using 12 animals in each plot, and the values were calculated as average values by excluding pigs which came off the test due to a disease and the like.
DG (daily gain; kg/day)=shipping body weight (kg)÷raised days (day)
Required days for 110 kg (day)=110 (kg)÷DG (kg/day)

With `Cl.NCC(=O)CCC(=O)O` [ALA, 5-aminolevulinic acid hydrochloride], the “Required days for 110 kg” value with piglets (10 mg 5-aminolevulinic acid hydrochloride per 1 kg feed, with or without 10 mg ferric ammonium citrate per 1 kg feed, 10 head per plot) is listed as 172. For the same molecule, the “Growth (in words)” value with piglets (feed additive from 14th day after birth) is on record as “markedly enhanced”. In addition, the “Body weight: relative value to 100 at the commencement of the test on the 3rd day after birth” value with Large Yorkshire piglets (21st day after birth) was 233%. Also, in the assay with Large Yorkshire piglets (setting [1]), the “B12: vitamin B12 concentration in serum” value was determined as 240 pg/mL, the “Fe: serum iron concentration in serum” value was determined as 44 µg/dL, the “Hb: hemoglobin concentration in whole blood sample” value came out at 8.5 g/dL and the “Ht: blood cell volume ratio in whole blood sample” value came out at 30.5%. Moreover, the “TP: total serum protein concentration in serum” value in the assay with Large Yorkshire piglets (setting [1]) stood at 5.8 g/dL. The “Required days for 110 kg (number of days reaching shipping body weight criterion of 110 kg)” value with Large Yorkshire piglets (calculated from shipping body weight after about 6 months, 110 kg ÷ daily gain) was 183 days. The “Frequency of disease onset” value in the assay on Large Yorkshire piglets (examination about 6 months after birth, 12 animals per plot) was found to be 0. In the assay on Large Yorkshire piglets (in and after the 21st day), the “Pigs which came off the test system due to a disease” value is listed as “diseases were not found”. Also, the “Pigs which came off the test plots due to a disease and the like” value in the assay with Large Yorkshire piglets (until the 21st day after birth) is “not found”.
